Source: US11203594B2, “Anti-proliferative agents for treating PAH” (Pfizer Inc., priority 2019, dated 2021)

Key:
Type in all cases: biochemical
[1] = biological target: CDK6/Cyclin D1 (Homo sapiens (Human), UniProt Q00534); assay: CDK6/Cyclin D1 Mobility Shift Assay (MSA), Ki by Morrison equation; conditions: geometric mean, tested in CDK6/D1 Ki assay using MSA
From the text: CDK6/Cyclin D1 Mobility Shift Assay (MSA)
The purpose of the CDK6/Cyclin D1 assay is to evaluate the inhibition (% inhibition, Kiapp and Ki values) in the presence of small molecule inhibitors by using a fluorescence based microfluidic mobility shift assay. CDK6/Cyclin D1 catalyzes the production of ADP from ATP that accompanies the phosphoryl transfer to the substrate peptide 5-FAM-Dyrktide The mobility shift assay electrophoretically separates the fluorescently labeled peptides (substrate and phosphorylated product) following the kinase reaction. Both substrate and product are measured and the ratio of these values is used to generate % conversion of substrate to product by the LabChip EZ Reader. Typical reaction solutions contained 2% DMSO (±inhibitor), 2% glycerol, 10 mM MgCl2, 1 mM DTT, 3.5 mM ATP, 0.005% Tween 20 (TW-20), 3 μM 5-FAM-Dyrktide, 4 nM activated CDK6/Cyclin D1 in 40 mM HEPES buffer at pH 7.5. […]
For all the CDK4 and CDK6 assays the Ki constant for compounds were calculated for each enzyme using the Morrison equation. Fractional activity was measured at different compound concentrations, [I] and the data fit to the Morrison equation where [E] is the enzyme concentration, [S] is the ATP concentration, and Kn^App is the apparent Km for ATP for each enzyme under each assay format. […]

[2] = biological target: CDK4/Cyclin D1 (Homo sapiens (Human), UniProt P11802); assay: CDK4/Cyclin D1 CHEF assay (Chelation-Enhanced Fluorescence), Ki by Morrison equation; conditions: geometric mean; tested in CHEF Assay; read-out: CDK4/Cyclin D1 GMean Ki
From the text: (§1) In Vitro Purified Enzyme Assays to Determine Potency for CDKs
(§2) CDK4/Cyclin D1 and CDK6/Cylcin D3 CHEF Assay
(§3) The Chelation-Enhanced Fluorescence (CHEF) monitors the phosphorylation state in real time where the level of fluorescence is directly proportional to the amount of phosphorylated substrate. CHEF exploits a synthetic α-amino acid with a side chain bearing an 8-hydroxyquinoline derivative (sulfonamido-oxine, Sox) which, upon coordination to Mg(II), relays information on the phosphorylation state of a proximal serine, threonine or tyrosine residue in peptide-based kinase substrates. Phosphorylation of a specific peptide (Catalog # AQT0258) from AssayQuant Technologies results in an increase in fluorescence at the excitation and emission wavelengths of 360 nm Ex/485 nm Em.
(§4) Examples along with DMSO (negative) and Palbociclib (positive) controls were added to 384-well plates at 100-fold their final concentrations followed by the addition of 10 nM CDK4/Cyclin D1 (LJIC-2007F1) or 10 nM CDK6/Cyclin D3 (LJIC-2009H2) for a 20 minute pre-incubation in assay buffer containing 40 mM HEPES, 1 mM Dithiothreito (DTT, 10 mM MgCl2, 1% Glycerol, 0.1% BSA. Enzyme reactions were initiated by the addition of AssayQuant Technologies peptide and ATP substrates (10 μM CHEF peptide (Catalog # AQT0258), 2 mM ATP) and allowed to proceed for 2 hours followed by fluorescence read of the reaction. Ki determinations were made from a plot of the fractional velocity as a function of inhibitor concentration fit to the Morrison equation with the enzyme concentration as a variable.
(§5) For all the CDK4 and CDK6 assays the Ki constant for compounds were calculated for each enzyme using the Morrison equation. Fractional activity was measured at different compound concentrations, [I] and the data fit to the Morrison equation where [E] is the enzyme concentration, [S] is the ATP concentration, and Kn^App is the apparent Km for ATP for each enzyme under each assay format. With the Ki calculations dependent on the assay conditions for each assay format the resulting Ki becomes assay independent with a strong one to one correlation of Ki values for compounds tested in both assay formats.
(§6) In Table 2, assay data are presented to two (2) significant figures as the geometric mean (Ki) based on the number of replicates listed (Number). A cell having NA means there was no data for that Example in the indicated assay.

[3] = biological target: CDK6/Cyclin D3 (Homo sapiens (Human), UniProt Q00534); assay: CDK6/Cyclin D3 CHEF assay (Chelation-Enhanced Fluorescence), Ki by Morrison equation; conditions: geometric mean; tested in CHEF Assay; read-out: CDK6/Cyclin D3: GMean Ki
From the text: as §1, §2, §3, §4, §5, §6

Chain of CDK6/Cyclin D3 (Q00534 whole entry): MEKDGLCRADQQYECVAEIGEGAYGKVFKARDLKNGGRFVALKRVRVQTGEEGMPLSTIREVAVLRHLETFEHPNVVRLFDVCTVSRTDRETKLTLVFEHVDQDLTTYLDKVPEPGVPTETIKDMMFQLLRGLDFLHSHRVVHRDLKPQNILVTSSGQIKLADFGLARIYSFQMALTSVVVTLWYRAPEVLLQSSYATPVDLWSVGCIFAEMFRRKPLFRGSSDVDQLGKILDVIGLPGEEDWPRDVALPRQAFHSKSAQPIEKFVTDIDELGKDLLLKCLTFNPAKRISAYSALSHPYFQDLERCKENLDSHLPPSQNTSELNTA
Chain of CDK6/Cyclin D3 (P30281 whole entry partner): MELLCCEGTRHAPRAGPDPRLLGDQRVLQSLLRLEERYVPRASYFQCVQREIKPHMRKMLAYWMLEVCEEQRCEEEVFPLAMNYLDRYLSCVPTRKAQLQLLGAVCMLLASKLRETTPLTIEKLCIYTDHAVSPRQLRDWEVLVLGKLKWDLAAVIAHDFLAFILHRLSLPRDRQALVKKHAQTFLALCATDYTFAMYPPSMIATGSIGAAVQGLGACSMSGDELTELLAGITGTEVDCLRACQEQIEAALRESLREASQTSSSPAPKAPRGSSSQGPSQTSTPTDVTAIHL
Chain of CDK4/Cyclin D1 (P11802 whole entry): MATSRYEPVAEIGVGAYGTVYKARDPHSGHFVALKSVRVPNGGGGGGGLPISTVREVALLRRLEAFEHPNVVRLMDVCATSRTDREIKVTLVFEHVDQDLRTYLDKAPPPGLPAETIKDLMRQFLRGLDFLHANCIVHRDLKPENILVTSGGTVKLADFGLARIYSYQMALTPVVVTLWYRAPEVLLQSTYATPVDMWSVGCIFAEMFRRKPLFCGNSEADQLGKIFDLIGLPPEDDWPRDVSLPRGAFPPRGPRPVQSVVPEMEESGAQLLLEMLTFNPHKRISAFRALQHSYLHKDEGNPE
Chain of CDK4/Cyclin D1 (P24385 whole entry partner): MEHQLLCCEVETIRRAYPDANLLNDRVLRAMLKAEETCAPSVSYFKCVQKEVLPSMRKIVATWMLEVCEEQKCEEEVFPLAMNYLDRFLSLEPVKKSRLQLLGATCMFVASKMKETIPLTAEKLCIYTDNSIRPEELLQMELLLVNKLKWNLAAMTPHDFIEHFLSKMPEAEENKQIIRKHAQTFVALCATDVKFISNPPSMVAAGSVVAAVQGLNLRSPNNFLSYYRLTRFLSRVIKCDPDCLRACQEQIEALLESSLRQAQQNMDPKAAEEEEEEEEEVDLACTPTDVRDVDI
Chain of CDK6/Cyclin D1 (Q00534 whole entry): as the sequence (Q00534 whole entry) above
Chain of CDK6/Cyclin D1 (P24385 whole entry partner): as the sequence (P24385 whole entry partner) above

Row | Structure (SMILES) | CDK6/Cyclin D3: GMean Ki (nM) (footnote c: CDK6/D1 Ki) [1] | Ki ([1]; read-out: CDK6/Cyclin D3: GMean Ki (nM) (footnote c: CDK6/D1 Ki)) | Ki [2] | Ki [3]
1 | CC(=O)c1c(C)c2cnc(N[C@@H]3CCOC[C@H]3O)nc2n([C@@H]2CCC[C@]2(C)F)c1=O (mixture of isomers) [Example 17, 6-Acetyl-8-[(1R,2S)-2-fluoro-2-methylcyclopentyl]-2-{[(3S,4R)-3-hydroxytetrahydro-2H-pyran-4-yl]amino}-5-methylpyrido[2,3-d]pyrimidin-7(8H)-one and 6-Acetyl-8-[(1S,2R)-2-fluoro-2-methylcyclopentyl]-2-{[(3S,4R)-3-hydroxytetrahydro-2H-pyran-4-yl]amino}-5-methylpyrido[2,3-d]pyrimidin-7(8H)-one] | 10.5^c nM |  |  | 
2 | CC(=O)c1c(C)c2cnc(N[C@@H]3CCOC[C@H]3O)nc2n([C@H]2CCC[C@]2(C)F)c1=O (single isomer, unassigned) [Example 22] |  | 2.8 nM |  | 
3 | CC(=O)c1c(C)c2cnc(N[C@@H]3CCOC[C@H]3O)nc2n([C@H]2CC[C@@H](O)CC2)c1=O [Example 20, 6-acetyl-8-(cis-4-hydroxycyclohexyl)-2-{[(3S,4R)-3-hydroxytetrahydro-2H-pyran-4-yl]amino}-5-methylpyrido[2,3-d]pyrimidin-7(8H)-one] |  |  | 54 nM | 58 nM
4 | CC(=O)c1c(C)c2cnc(N[C@@H]3CCOC[C@H]3O)nc2n([C@H]2C[C@H](O)C2)c1=O [Example 21, 6-acetyl-8-(trans-3-hydroxycyclobutyl)-2-{[(3S,4R)-3-hydroxytetrahydro-2H-pyran-4-yl]amino}-5-methylpyrido[2,3-d]pyrimidin-7(8H)-one] |  |  | 13 nM | 13 nM
5 | CC(=O)c1c(C)c2cnc(N[C@@H]3CCOC[C@H]3O)nc2n([C@H]2CC[C@H](N)CC2)c1=O [Example 24] |  |  | 13 nM | 24 nM
6 | CC(=O)c1c(C)c2cnc(N[C@@H]3CCOC[C@H]3O)nc2n([C@H]2CC[C@H](N(C)C)CC2)c1=O [Example 25] |  |  | 36 nM | 110 nM
7 | CC(=O)c1c(C)c2cnc(N[C@@H]3CCOC[C@H]3O)nc2n([C@H]2CCN(C)C2)c1=O [Example 26] |  |  | 13 nM | 39 nM
8 | CC(=O)c1c(C)c2cnc(N[C@@H]3CCOC[C@H]3O)nc2n([C@@H]2CCNC2)c1=O [Example 27] |  |  | 9.9 nM | 25 nM
9 | COCCN1CC2(CC(n3c(=O)c(C(C)=O)c(C)c4cnc(N[C@@H]5CCOC[C@H]5O)nc43)C2)C1 [Example 28] |  |  | 10 nM | 36 nM
10 | CC(=O)c1c(C)c2cnc(N[C@@H]3CCOC[C@H]3O)nc2n(C2CC3(C2)CN(CC(F)F)C3)c1=O [Example 29, 6-acetyl-8-[2-(2,2-difluoroethyl)-2-azaspiro[3.3]heptan-6-yl]-2-{[(3S,4R)-3-hydroxytetrahydro-2H-pyran-4-yl]amino}-5-methylpyrido[2,3-d]pyrimidin-7(8H)-one] |  |  | 1.9 nM | 4.9 nM
11 | CC(=O)c1c(C)c2cnc(N[C@H]3CCOC[C@@H]3O)nc2n(C2CCCC2)c1=O [Example 30, 6-acetyl-8-cyclopentyl-2-{[(3R,4S)-3-hydroxytetrahydro-2H-pyran-4-yl]amino}-5-methylpyrido[2,3-d]pyrimidin-7(8H)-one] |  |  | 430 nM | > 570 nM
12 | CC(=O)c1c(C)c2cnc(N[C@@H]3CCOC[C@H]3O)nc2n([C@H]2CCOC2)c1=O [Example 31] |  |  | 27 nM | 29 nM
13 | CC(=O)c1c(C)c2cnc(N[C@@H]3CCOC[C@H]3O)nc2n(C2CCNCC2)c1=O [Example 32] |  |  | 16 nM | 27 nM
14 | CC(=O)c1c(C)c2cnc(N[C@H]3CCOC[C@@H]3O)cc2n(C2CCCC2)c1=O [Example 33, 3-acetyl-1-cyclopentyl-7-{[(3R,4S)-3-hydroxytetrahydro-2H-pyran-4-yl]amino}-4-methyl-1,6-naphthyridin-2(1H)-one] |  |  | 62 nM | 130 nM
15 | CC(=O)c1c(C)c2cnc(N[C@@H]3CCOC[C@H]3O)nc2n(C2CC2)c1=O [Example 34] |  |  | 52 nM | 85 nM
